Test results reported in EP0106487A2, “Improvements in or relating to novel bridged hexahydrobenz(f)isoquinolines” (ELI LILLY AND COMPANY, priority 1982, dated 1984).
Structures can show the parent of a compound that is named as a salt.

Assays:
[1] = test system: Cox standard strain albino male mice; assay: Mouse writhing inhibition assay (acetic acid-induced writhing); format: in vivo; conditions: sc, s.c. administration, dose required to inhibit acetic acid (0.60 percent, i.p.) induced writhing by fifty percent
[2] = test system: Cox standard strain albino male mice; assay: as above; format: in vivo; conditions: po, p.o. administration (gavage, 5% acacia suspension, sixty minutes before acetic acid), dose required to inhibit induced writhing by fifty percent
Text: Mouse Writhing Inhibition Assay
Writhing, characterized by contraction of the abdominal musculature, extension of the hindlegs, and rotation of the trunk, was induced in Cox standard strain albino male mice. The mice,. weighing 18-24 grams, were fasted overnight and given the test compound by gavage in an acacia suspension (5%) sixty minutes before writhing was induced by the intraperitoneal administration of acetic acid (0.60 percent). Each treatment group consisted of 5 mice. The total number of writhes for the treatment group was determined during a 10-minute observation starting 5 minutes after acetic acid administration.
The results in the mouse writhing assay are presented as the effective dose in mg./kg. of the tested compound required to inhibit induced writhing in the test animals by fifty percent (ED50). Results are presented in Column II for both subcutaneous (s.c.) and oral (p.o.) administration of the test compound as compared to the reference compound meperidine.

Compound `COc1ccc2c(c1)C13CCCC1(CC2)CNCC3.Cl` (stereo not shown) [Example 3, 1,2,3,4,5,6-hexahydro-9-methoxy-4a,10b-propanobenz[f]isoquinoline hydrochloride] has an ED50 [1] of 56 mg/kg and an ED50 [2] of 66 mg/kg.
`C=CCN1CCC23CCCC2(CCc2ccc(O)cc23)C1` (stereo not shown) [Example 7, 1,2,3,4,5,6-hexahydro-3-(2-propenyl)-4a,10b-propanobenz-[f]isoquinolin-9-ol] showed an ED50 [1] of over 80 mg/kg and an ED50 [2] of over 80 mg/kg.
With `Oc1ccc2c(c1)C13CCCC1(CC2)CN(CC1CC1)CC3` (stereo not shown) [Example 6, 1,2,3,4,5,6-hexahydro-3-cyclopropylmethyl-4a,10b-propanobenz[f]isoquinolin-9-ol] the ED50 [1] was 60 mg/kg and the ED50 [2] was over 80 mg/kg.
`COc1ccc2c(c1)C13CCCC1(CC2)CN(C)CC3.Cl` (stereo not shown) [Example 1, 1,2,3,4,5,6-hexahydro-3-methyl-9-methoxy-4a,10b-propanobenz[f]isoquinoline hydrochloride] showed an ED50 [1] of 17 mg/kg and an ED50 [2] of 23 mg/kg.
`CCOC(=O)C1(c2ccccc2)CCN(C)CC1` [meperidine, reference compound] gave an ED50 [1] of 2.8 mg/kg and an ED50 [2] of 21 mg/kg.
In the case of `CN1CCC23CCCC2(CCc2ccccc23)C1` (racemic) [Example 8, 1,2,3,4,5,6-hexahydro-3-methyl-propanobenz-[f]isoquinoline hydrobromide], the ED50 [1] is reported as 23 mg/kg and the ED50 [2] is reported as 68 mg/kg.
In the case of `CN1CCC23CCCC2(CCc2ccc(O)cc23)C1` (racemic) [Example 2, 1,2,3,4,5,6-hexahydro-3-methyl-4a,lOb-propanobenz[f]isoquinolin-9-ol maleate], the ED50 [1] is reported as 2.4 mg/kg and the ED50 [2] is reported as 17 mg/kg.
With `Oc1ccc2c(c1)C13CCCC1(CC2)CNCC3` (stereo not shown) [Example 4, 1,2,3,4,5,6-hexahydro-4a,10b-propanobenz[f]-isoquinolin-9-ol] the ED50 [1] was 52 mg/kg and the ED50 [2] was 78 mg/kg.
